{
  "source": "patent US4469631A",
  "about": "“Fusion peptides comprising an expressible bacterial gene and β-endorphin” (The Regents of the University of California, priority 1982, dated 1984)",
  "key": {"[1]": {"system": "prostaglandin E1-stimulated adenylate cyclase of NG 108-15 cells", "conditions": "literature; cited from earlier work"}, "[2]": {"system": "opiate receptors", "conditions": "Li, C. H., et al, Proc. Natl. Acad. Sci. 76, 3276 (1979); cited from earlier work"}, "[3]": {"system": "rat brain opiate receptors", "assay": "Receptor binding activity: competitive inhibition of binding of labeled opiate agonist or antagonist to rat brain membranes", "conditions": "result in words", "procedure": "The opiate receptor preparation was prepared from rat membrane preparation isolated from male Sprague-Dawley rats (200-220 g) killed by decapitation. The brains, except for the cerebellum, were homogenized in 40 volumes of ice-cold Tris-HCl buffer pH 7.7. The homogenates were centrifuged at 600 g for 5 minutes, then the supernatant fluid was centrifuged at 49,000 g at 4° C. for 15 minutes. The pellets were re-suspended in 5 ml of 0.05 M Tris-HCl buffer pH 7.7 and incubated at 37° C. for 30 minutes, then centrifuged at 49,000 g at 4° C. for another 15 minutes. The final pellet from each rat brain was then re-suspended in 40 ml of 0.05 M Tris-HCl buffer pH 7.7 containing 100 μg/ml of Bacitracin and used for the binding assays.\nThe binding experiments were performed either at 25° C. for 20 minutes or at 0° C. for 3 hours. The reaction mixtures contained 1 ml of the rat membrane preparation as described, 1.5 nM of ^3 H-methionine enkephalinamide (38 Ci/m Mole) or ^3 H-naloxone (25 Ci/m Mole) together with bacterial extracts from pβgal or pβgal-end transformed cultures (4.5 mg protein for enkephalinamide rections and 0.65 μg protein for naloxone reactions). At the end of the binding reaction the mixture was filtered under vacuum over glass fiber filters (Whatman, Clifton, N.J., GH-B filters). […]"}, "[4]": {"system": "prostaglandin E1-stimulated adenylate cyclase of NG 108-15 cells", "assay": "Inhibition of prostaglandin E1-stimulated adenylate cyclase activity in neuroblastoma-glioma hybrid cell line NG 108-15", "format": "biochemical", "conditions": "result in words; for reversal of the adenylate cyclase inhibition by naloxone: naloxone added"}, "[5]": {"system": "antiserum directed against mouse β-endorphin", "assay": "Immunological activity: competition with 125I-labeled human β-endorphin for antiserum (radioimmunoassay)", "format": "binding", "conditions": "dilution series of extract, 4° C., 24 hours; FIG. 5", "procedure": "Immunological activity of β-endorphin produced according to the present invention was measured by its ability to compete with radioactively labeled human β-endorphin for antiserum directed against mouse β-endorphin. The human hormone differs from that of mouse only at position 27, where a tyrosine is present instead of histidine residue. […] Antiserum to mouse β-endorphin was prepared as described by Allen, et al., Proc. Nat'l. Acad. Sci. 75, 4972 (1978). […]\nIn the assay, a dilution series of β-endorphin sample prepared according to the present invention was incubated with a fixed amount of labeled human endorphin and a fixed amount of antiserum. […] The percentage of radioactivity remaining in the pellet was compared to the total radioactivity determined prior to incubation and plotted as a function of the concentration of the cell extracts."}},
  "data": [
    {"molecule": "CN1CC[C@]23c4c5ccc(O)c4O[C@H]2[C@@H](O)C=C[C@H]3[C@H]1C5", "note": "[morphine]", "values": [
      {"measurement": "inhibition of prostaglandin E1 stimulation of adenylate cyclase", "setting": "[1]", "result": "This stimulation is inhibited by morphine"}
    ]},
    {"molecule": "C=CCN1CC[C@]23c4c5ccc(O)c4O[C@H]2C(=O)CC[C@@]3(O)[C@H]1C5", "note": "[naloxone]", "values": [
      {"measurement": "prevention of the inhibitory effect of morphine on stimulated adenylate cyclase", "setting": "[1]", "result": "the inhibitory affect of morphine can be prevented by naloxone"}
    ]},
    {"molecule": "Gly^31 -endorphin (YGGFMTSEKSQTPLVTLFKNAIIKNAYKKGG; Beta-endorphin; UniProt P01189 237-267, looked up, variant E31G) [\"super-agonist\" endorphin analog described by Li, C; H]", "values": [
      {"measurement": "opiate agonist potency relative to endorphin", "setting": "[2]", "result": "more potent opiate agonists than endorphin itself"}
    ]},
    {"molecule": "Gly^31 -endorphinamide", "values": [
      {"measurement": "opiate agonist potency relative to endorphin", "setting": "[2]", "result": "more potent opiate agonists than endorphin itself"}
    ]},
    {"molecule": "Gly^31 -endorphinylglycine", "values": [
      {"measurement": "opiate agonist potency relative to endorphin", "setting": "[2]", "result": "more potent opiate agonists than endorphin itself"}
    ]},
    {"molecule": "β-endorphin (YGGFMTSEKSQTPLVTLFKNAIIKNAHKKGQ; Beta-endorphin; UniProt P01193 205-235, looked up) [mouse β-endorphin, 31 amino acid polypeptide, released from the bacterial β-galactosidase fusion protein according to the invention]", "values": [
      {"measurement": "displacement of opiate agonist (enkephalinamide) and opiate antagonist (naloxone) from rat brain opiate receptors", "setting": "[3]", "result": "effective inhibitor"},
      {"measurement": "displacement of opiate agonist (enkephalinamide) and opiate antagonist (naloxone) from rat brain opiate receptors", "setting": "[3]; listed as Endorphin", "result": "displaced both the opiate agonist and the opiate antagonist"},
      {"measurement": "inhibition of prostaglandin E1 stimulation of adenylate cyclase activity", "setting": "[4]", "result": "inhibited the adenylate cyclase activity"},
      {"measurement": "reversal of the adenylate cyclase inhibition by naloxone", "setting": "[4]", "result": "the inhibition was reversed by the addition of naloxone"},
      {"measurement": "reversal of the adenylate cyclase inhibition by naloxone", "setting": "[4]; listed as Endorphin", "result": "inhibition was reversed by addition of the opiate antagonist naloxone"},
      {"measurement": "inhibition of prostaglandin E1 stimulation of adenylate cyclase activity", "setting": "[4]; listed as Endorphin", "result": "significant inhibition"},
      {"measurement": "competition with labeled human β-endorphin for antiserum against mouse β-endorphin", "setting": "[5]", "result": "immunologically reactive with antiserum raised against mouse endorphin"}
    ]}
  ]
}
